Patent US20240083857A1, “2-Methyl-Quinazolines” (Bayer Pharma Aktiengesellschaft, priority 2017, published 2024)
Structures can show the parent of a compound that is named as a salt.

Key:
[1] = target: human SOS1 (loading of human K-Ras^G12C-GDP with fluorescent GTP-analog) (Homo sapiens, UniProt Q07889); assay: Biochemical assay 3: K-Ras^G12C activation assay by hSOS1 (HTRF); details: no GTP; read-out: Assay 3 (KRAS-Activation by SOS no GTP) activity expressed as IC50
[2] = target: K-Ras^G12C : hSOS1 interaction (Homo sapiens, UniProt Q07889); assay: Biochemical assay 1: K-Ras^G12C interaction assay with hSOS1 (HTRF); format: binding; details: read-out: Assay 1 (KRAS-SOS Interaction) activity expressed as IC50

Row | Structure (SMILES) | IC50 [1] | IC50 [2]
1 | COc1cc2nc(C)nc(NC(C)c3ccc(-c4ccccc4CN4CCNCC4)s3)c2cc1OC (stereo not shown) [Example 305, 6,7-dimethoxy-2-methyl-N-[1-{5-[2-(piperazin-1-ylmethyl)phenyl]thiophen-2-yl}ethyl]quinazolin-4-amine hydrochloride] | 0.0584 µM | 0.0616 µM
2 | COc1cc2nc(C)nc(NC(C)c3ccc(-c4ccccc4CNCC(F)F)s3)c2cc1OC (stereo not shown) [Example 315, N-{1-[5-(2-{[(2,2-difluoroethyl)amino]methyl}phenyl)thiophen-2-yl]ethyl}-6,7-dimethoxy-2-methylquinazolin-4-amine] | 1.28 µM | 0.777 µM
3 | COc1cc2nc(C)nc(NC(C)c3ccc(-c4cc(Cl)ccc4CN)s3)c2cc1OC (stereo not shown) [Example 292, N-[1-{5-[2-(aminomethyl)-5-chlorophenyl]thiophen-2-yl}ethyl]-6,7-dimethoxy-2-methylquinazolin-4-amine] | 0.0413 µM | 0.0315 µM
4 | COc1cc2nc(C)nc(NC(C)c3ccc(-c4ccccc4OCCN4CCCC4)s3)c2cc1OC (stereo not shown) [Example 325, 6,7-di methoxy-2-methyl-N-[1-(5-{2-[2-(pyrrolidin-1-yl)ethoxy]phenyl}thiophen-2-yl)ethyl]quinazolin-4-amine] | 0.438 µM | 0.228 µM
5 | COc1cc2nc(C)nc(N[C@H](C)c3cccc(-c4c(C)n[nH]c4C)c3)c2cc1OC [Example 334, N-{(1R)-1-[3-(3,5-dimethyl-1H-pyrazol-4-yl)phenyl]ethyl}-6,7-dimethoxy-2-methylquinazolin-4-amine] | 1.41 µM | 0.362 µM
6 | COc1cc2nc(C)nc(N[C@H](C)c3cccc(-c4ccc(F)cc4CN)c3)c2cc1OC [Example 274, N-{(1R)-1-[2′-(aminomethyl)-4′-fluorobiphenyl-3-yl]ethyl}-6,7-dimethoxy-2-methylquinazolin-4-amine] | 0.214 µM | 0.13 µM
7 | COc1cc2nc(C)nc(NC(C)c3ccc(-c4ccccc4CN4CC(N(C)C)C4)s3)c2cc1OC (stereo not shown) [Example 319, N-{1-[5-(2-{[3-(dimethylamino)azetidin-1-yl]methyl}phenyl)thiophen-2-yl]ethyl}-6,7-dimethoxy-2-methylquinazolin-4-amine] | 0.127 µM | 0.164 µM
8 | COc1cc2nc(C)nc(N[C@H](C)c3cccc(CN)c3)c2cc1OC [Example 260, N-{(1R)-1-[3-(aminomethyl)phenyl]ethyl}-6,7-dimethoxy-2-methylquinazolin-4-amine] | 5.68 µM | 4.88 µM
9 | COc1cc2nc(C)nc(NC(C)c3ccc(-c4ccccc4CNCC(F)(F)F)s3)c2cc1OC (stereo not shown) [Example 300, 6,7-di methoxy-2-methyl-N-{1-[5-(2-{[(2,2,2-trifluoroethyl)amino]methyl}phenyl)thiophen-2-yl]ethyl}quinazolin-4-amine] | 5.08 µM | 3.15 µM
10 | COc1cc2nc(C)nc(NC(C)c3ccc(-c4ccccc4C(C)=O)s3)c2cc1OC (stereo not shown) [Example 324, 1-[2-(5-{1-[(6,7-dimethoxy-2-methylquinazolin-4-yl)amino]ethyl}thiophen-2-yl)phenyl]ethanone] | 6.84 µM | 1.29 µM
11 | COc1cc2nc(C)nc(NC(C)c3ccc(-c4ccccc4CN4CCN(C)CC4)s3)c2cc1OC (stereo not shown) [Example 308, 6,7-dimethoxy-2-methyl-N-[1-(5-{2-[(4-methylpiperazin-1-yl)methyl]phenyl}thiophen-2-yl)ethyl]quinazolin-4-amine] | 0.22 µM | 0.26 µM
12 | CCN(CC)Cc1ccccc1-c1ccc(C(C)Nc2nc(C)nc3cc(OC)c(OC)cc23)s1 (stereo not shown) [Example 288, N-[1-(5-{2-[(diethylamino)methyl]phenyl}thiophen-2-yl)ethyl]-6,7-dimethoxy-2-methylquinazolin-4-amine] | 0.247 µM | 0.17 µM
13 | COc1cc2nc(C)nc(NC(C)c3ccc(-c4ccccc4CNCC(=O)c4c[nH]c5ccccc45)s3)c2cc1OC (stereo not shown) [Example 277, 2-{[2-(5-{1-[(6,7-dimethoxy-2-methylquinazolin-4-yl)amino]ethyl}thiophen-2-yl)benzyl]amino}-1-(1H-indol-3-yl)ethanone] | 0.263 µM | 0.214 µM
14 | COc1cc2nc(C)nc(NC(C)c3cc(-c4cnc5n4CCC5)cs3)c2cc1OC (stereo not shown) [Example 272, N-{1-[4-(6,7-dihydro-5H-pyrrolo[1,2-a]imidazol-3-yl)thiophen-2-yl]ethyl}-6,7-dimethoxy-2-methylquinazolin-4-amine] | 2.5 µM | 1.82 µM
15 | COc1cc2nc(C)nc(N[C@H](C)c3cccc(-c4c(C)noc4C)c3)c2cc1OC [Example 336, N-{(1R)-1-[3-(3,5-dimethyl-1,2-oxazol-4-yl)phenyl]ethyl}-6,7-dimethoxy-2-methyl-quinazolin-4-amine] | 1.99 µM | 0.687 µM
16 | COc1cc2nc(C)nc(NC(C)c3ccc(-c4ccccc4CN4CCOCC4)s3)c2cc1OC (stereo not shown) [Example 311, 6,7-dimethoxy-2-methyl-N-[1-{5-[2-(morpholin-4-ylmethyl)phenyl]thiophen-2-yl}ethyl]quinazolin-4-amine] | 0.629 µM | 0.763 µM

Row | Structure (SMILES) | IC50 [1] | IC50 [2]
17 | COc1cc2nc(C)nc(N[C@H](C)c3cccc(-c4ccnn4C)c3)c2cc1OC [Example 339, 6,7-dimethoxy-2-methyl-N-{(1R)-1-[3-(1-methyl-1H-pyrazol-5-yl)phenyl]ethyl}quinazolin-4-amine] | 1.99 µM | 0.815 µM
18 | COc1cc2nc(C)nc(NC(C)c3ccc(-c4ccccc4CN(C)CC(F)F)s3)c2cc1OC (stereo not shown) [Example 291, N-{1-[5-(2-{[(2,2-difluoroethyl)(methyl)amino]methyl}phenyl)thiophen-2-yl]ethyl}-6,7-dimethoxy-2-methylquinazolin-4-amine] | 2.23 µM | 1.12 µM
19 | COc1cc2nc(C)nc(NC(C)c3c(F)ccc4[nH]ncc34)c2cc1OC (stereo not shown) [Example 18, N-[1-(5-fluoro-1H-indazol-4-yl)ethyl]-6,7-dimethoxy-2-methylquinazolin-4-amine] | 10.5 µM | 6.5 µM
20 | COc1cc2nc(C)nc(NC(C)c3ccc(-c4ccccc4CN4CCC4)s3)c2cc1OC (stereo not shown) [Example 317, N-[1-{5-[2-(azetidin-1-ylmethyl)phenyl]thiophen-2-yl}ethyl]-6,7-dimethoxy-2-methylquinazolin-4-amine] | 0.0884 µM | 0.076 µM
21 | COc1cc2nc(C)nc(NC(C)c3ccc(-c4ccccc4CN4CC[C@H]4CO)s3)c2cc1OC (stereo partly drawn) [Example 318, {1-[(2S)-(5-{1-[(6,7-dimethoxy-2-methylquinazolin-4-yl)amino]ethyl}thiophen-2-yl)benzyl]azetidin-2-yl}methanol] | 0.221 µM | 0.171 µM
22 | COc1cc2nc(C)nc(NC(C)c3ccc(-c4ccccc4CN4CC(F)C4)s3)c2cc1OC (stereo not shown) [Example 322, N-[1-(5-{2-[(3-fluoroazetidin-1-yl)methyl]phenyl}thiophen-2-yl)ethyl]-6,7-dimethoxy-2-methylquinazolin-4-amine] | 0.268 µM | 0.408 µM
23 | COc1cc2nc(C)nc(NC(C)c3ccc(-c4ccccc4CN(C)C)s3)c2cc1OC (stereo not shown) [Example 262, N-[1-(5-{2-[(dimethylamino)methyl]phenyl}thiophen-2-yl)ethyl]-6,7-dimethoxy-2-methylquinazolin-4-amine] | 0.0511 µM | 0.0403 µM
24 | COc1cc2nc(C)nc(NC(C)c3ccc(-c4ccc(F)cc4CNC(=O)CNCC(F)(F)F)s3)c2cc1OC (stereo not shown) [Example 295, N-[2-(5-{1-[(6,7-dimethoxy-2-methylquinazolin-4-yl)amino]ethyl}thiophen-2-yl)-5-fluorobenzyl]-N^2-(2,2,2-trifluoroethyl)glycinamide] | 2.78 µM | 0.98 µM
25 | COc1cc2nc(C)nc(NC(C)c3ccc(-c4ccc(F)cc4CNC(=O)c4cnc[nH]4)s3)c2cc1OC (stereo not shown) [Example 294, N-[2-(5-{1-[(6,7-dimethoxy-2-methylquinazolin-4-yl)amino]ethyl}thiophen-2-yl)-5-fluorobenzyl]-1H-imidazole-5-carboxamide] | 8.58 µM | 3.1 µM
26 | COc1cc2nc(C)nc(NC(C)c3ccc(-c4ccc(F)cc4CNC(=O)c4ncc[nH]4)s3)c2cc1OC (stereo not shown) [Example 293, N-[2-(5-{1-[(6,7-dimethoxy-2-methylquinazolin-4-yl)amino]ethyl}thiophen-2-yl)-5-fluorobenzyl]-1H-imidazole-2-carboxamide] | 8.2 µM | 2.75 µM
27 | COc1cc2nc(C)nc(NC(C)c3cccc4ccsc34)c2cc1OC (stereo not shown) [Example 15, N-[1-(1-benzothiophen-7-yl)ethyl]-6,7-dimethoxy-2-methylquinazolin-4-amine] | 0.324 µM | 0.126 µM
28 | COc1cc2nc(C)nc(N[C@H](C)c3cccc(-c4ccn[nH]4)c3)c2cc1OC [Example 337, 6,7-dimethoxy-2-methyl-N-{(1R)-1-[3-(1H-pyrazol-5-yl)phenyl]ethyl}quinazolin-4-amine] | 1.35 µM | 0.344 µM
29 | COC(=O)CNCc1ccccc1-c1ccc(C(C)Nc2nc(C)nc3cc(OC)c(OC)cc23)s1 (stereo not shown) [Example 281, methyl N-[2-(5-{1-[(6,7-dimethoxy-2-methylquinazolin-4-yl)amino]ethyl}thiophen-2-yl)benzyl]glycinate] | 0.367 µM | 0.559 µM
30 | COc1cc2nc(C)nc(N[C@H](C)c3cccc(-c4ccccc4CN)c3)c2cc1OC [Example 258, N-{(1R)-1-[2′-(aminomethyl)biphenyl-3-yl]ethyl}-6,7-dimethoxy-2-methylquinazolin-4-amine] | 0.245 µM | 0.204 µM
31 | COc1cc2nc(C)nc(NC(C)c3ccc(-c4ccccc4CNc4cc[nH]n4)s3)c2cc1OC (stereo not shown) [Example 302, 6,7-dimethoxy-2-methyl-N-[1-(5-{2-[(1H-pyrazol-3-ylamino)methyl]phenyl}thiophen-2-yl)ethyl]quinazolin-4-amine] | 1.54 µM | 0.787 µM
32 | COc1cc2nc(C)nc(NC(C)c3ccc(-c4ccc(F)cc4CNC(C)=O)s3)c2cc1OC (stereo not shown) [Example 307, N-[2-(5-{1-[(6,7-dimethoxy-2-methylquinazolin-4-yl)amino]ethyl}thiophen-2-yl)-5-fluorobenzyl]acetamide] | 0.78 µM | 0.589 µM
